Source: PMC9969401, “Discovery of 2-(3-Benzamidopropanamido)thiazole-5-carboxylate Inhibitors of the Kinesin HSET (KIFC1) and the Development of Cellular Target Engagement Probes” (Journal of Medicinal Chemistry, 2023)
Values belong to the compound of their own block, whether it stands above or below them.

How the values were obtained:
[1] = tested on: DLD1 cells (4NCA and 4N); assay type: cell-based; conditions: human
Protocol: Inhibition of HSET-mediated clustering was measured using a phenotypic assay measuring the formation of multipolar metaphase spindles in DLD1 cells with (4NCA) or without (4N) centrosome amplification. 4NCA cells were generated by treating 2N DLD1 cells with 2 μΜ DCB for 24 h, washed, and released in growth media for 24 h. 4N and 4NCA DLD1 cells were plated in 96-well ibidi μ-Clear plates (IB-89626, ibidi) with a no. 1.5 polymer coverslip bottom with optimal imaging properties. To enrich the mitotic population, cells were first treated for 3.5 h with 8 μM pro-TAME (I-440-01M, R&D system), an inhibitor of APC/C that transiently arrests cells in metaphase without affecting the structure of the spindle. Following the initial arrest, cells were treated with HSET compounds in the presence of 8 μM MG-132 (S2619, SelleckChem), a proteasome inhibitor that helps to maintain the metaphase arrest, where the number of spindle poles/cell can be optimally quantified by an automated segmentation analysis.
Cells were then fixed in methanol and stained for 3 h for mitotic pole marker aurora A (1:1000 610939 mouse anti-IAK1, BD Biosciences) and phosphorylated histone H3 (1:1500 ab47297 anti-histone H3 pS10, Abcam) as a marker of mitotic cells in 1.5% FBS in PBS. Following primary antibody treatment, cells were incubated with secondary antibodies Alexa Fluor 488 goat antimouse and Alexa Fluor 555 goat antirabbit (1:1500, A11029 and A21429, respectively, Life Technologies) together with 1 μg/mL DAPI (D9542, Sigma) in 1.5% FBS in PBS. Image acquisition was performed at 10× using the GE INCELL 2200 High Content Imaging System (Cytiva) and analyzed using the InCell Investigator software. Mitotic cells were identified by high pHH3 staining and were scored as multipolar if they had more than two mitotic spindle poles. The percentage of multipolar mitoses was calculated by dividing the number of multipolar mitoses by the total of all visible mitoses in one well of a 96-well plate (n > 100 for each replicate, two replicates per concentration point).
3. […]

[2] = tested on: DLD1 HSET KO cells; experiment: Click probe localization imaging in DLD1 HSET KO cells (negative control); assay type: cell-based, human; conditions: DLD1 HSET KO, Tz-Cy5 800nM
Protocol: The Cy-5 tetrazine dye selected for this experiment is not cell-permeable, thus fixation and permeabilization of cells were necessary prior to its addition. Experiments were conducted in DLD1 4N cells and, as a negative control, isogenic 2N DLD1 HSET KO cells in which HSET expression was prevented by the disruption of the HSET gene using CRISPR. Cells were treated first with proTAME for 2 h to accumulate mitotic events, followed by treatment with the TCO probe 40 for 45 min. The live cells were then fixed and permeabilized before treatment with the tetrazine-Cy5 dye and incubation to allow the IEDDA reaction to occur. Additionally, the cells were stained for the endogenous HSET protein using indirect immunofluorescence and imaged to observe the fluorescence from both the TCO probe and antibody-labeled HSET. […] A 3 μM concentration of the probe 40 gave an acceptable signal-to-noise ratio of around 2:1. Even under these optimal conditions, some residual uniform cytoplasmic Cy5 signal was observed within the cells. However, a clear Cy5 decoration of the mitotic spindle was seen, which overlapped with the signal from the antibody-probed endogenous HSET protein (Figures 2A and S6). […] We observed a 14–17-fold increase in signal in DLD1 4N cells treated with 40 relative to tetrazine-Cy5 alone. […] Comparing the intensity of click probe labeling coincident with the mitotic spindle in DLD1 4N cells to that in DLD1 HSET KO cells after both were treated with 40, we observed a twofold higher signal in the former.
Direct target engagement of active inhibitor 36 was measured by calculating its capacity to displace the TCO-containing probe 40. 4N DLD1 cells and DLD1 HSET KO cells (negative control) were plated in 96-well ibidi μ-Clear plates (IB-89626, ibidi). Cells were first treated for 2 h with 8 μM pro-TAME (I-440–01M, R&D system) to accumulate mitotic cells and were then treated with 8 μM MG-132 (S2619, SelleckChem) and 3 μM 40, alone or together with active inhibitor 36 in DMEM media with 1% FBS for 45 min. Cells were then washed three times in DMEM, with the second wash being incubated for 10 min to ensure the optimal reduction of unspecific compound binding. After an additional PBS wash, cells were then fixed in 4% PFA/PBS (15670799, Thermo Scientific) prior to incubation with 400 nM tetraszine-Cy5 (CLK-015-05, Jena Biosciences) in 1.5% FBS/PBS for 10 min at room temperature. Cells were permeabilized by the addition of 0.5% TritonX-100/PBS for 5 min before being stained overnight for Pericentrin (1:1500 ab28144 mouse anti-PCNT, Abcam) and KIFC1 (1:1500 12313S rabbit anti-KIFC1, Cell Signaling Technologies). Secondary antibodies Alexa Fluor 488 donkey antirabbit and Alexa Fluor 555 donkey antimouse (1:1500, A21206 and A31570, respectively, Life Technologies) were added together with 1 μg/mL DAPI (D9542, Sigma) in 1.5% FBS in PBS.
Plates were imaged at 40× using a Zeiss LSM980 confocal microscope with Airyscan 2. The subsequent analysis and quantification were performed using 3D image segmentation with the Arivis4D software. Mitotic cells were segmented by selecting for the highest density (integrated DAPI intensity/total volume), and the mitotic pole areas were segmented using the Pericentrin signal. The signal of the click probe (Cy5) and total KIFC1 (FITC) was measured on the mitotic pole area, and both were normalized to the control condition containing 40 probe alone. The ratio of probe per target (click probe pole integrated intensity signal/KIFC1 pole integrated intensity signal) was used to calculate the occupancy of the probe in the target protein and normalized to the control condition containing 40 probe alone (n > 100 for each replicate, two replicates per concentration point).

[3] = BALB/c mouse plasma stability assay; assay type: in vitro ADME; conditions: read-out: estimated half-life in plasma

SMILES: CCCOC(=O)c1sc(NC(=O)C[C@H](CCCNC)NC(=O)c2cccc(-c3noc(C)n3)c2)nc1C [Compound 35, Propyl (S)-4-Methyl-2-(3-(3-(5-methyl-1,2,4-oxadiazol-3-yl)benzamido)-6-(methylamino)hexanamido)thiazole-5-carboxylate]
concentration at which cellular toxicity observed [1]: 60 µM

SMILES: CCCOC(=O)c1sc(NC(=O)C[C@H](CCCN(C)C(=O)O[C@@H]2CC/C=C/CCC2)NC(=O)c2cccc(-c3noc(C)n3)c2)nc1C [Compound 38, Propyl 2-((S)-6-(((((S,E)-Cyclooct-4-en-1-yl)oxy)carbonyl)(methyl)amino)-3-(3-(5-methyl-1,2,4-oxadiazol-3-yl)benzamido)hexanamido)-4-methylthiazole-5-carboxylate]
Average Pixel intensity ([2]; 5μM, Panel A: 3 quick washes at room temperature): 799
Average Pixel intensity ([2]; 5μM, Panel B: 2 quick washes then 1 at 37 °C for 5 minutes): 752
Average Pixel intensity ([2]; 5μM, Panel C: 2 quick washes then 1 at 37 °C for 10 minutes): 702
Average Pixel intensity ([2]; 10μM, Panel A: 3 quick washes at room temperature): 1464
Average Pixel intensity ([2]; 10μM, Panel B: 2 quick washes then 1 at 37 °C for 5 minutes): 1121
Average Pixel intensity ([2]; 10μM, Panel C: 2 quick washes then 1 at 37 °C for 10 minutes): 803

half-life [3]: 3.58 h
SMILES: CCCOC(=O)c1sc(NC(=O)CCNC(=O)c2cccc(-c3noc(C)n3)c2)nc1C [Compound 32, Propyl 4-Methyl-2-(3-(3-(5-methyl-1,2,4-oxadiazol-3-yl)benzamido)propanamido)thiazole-5-carboxylate]
concentration at which cellular toxicity observed [1]: > 15 µM
